Literature values, collected in patent US9326976B2, “Carbamate derivatives” (CHIESI FARMACEUTICI S.P.A., priority 2014, dated 2016).

System: COPD patients
[1] = patients with severe disease, frequent exacerbations and mucus hypersecretion

Structure (SMILES): O=C(Nc1c(Cl)cncc1Cl)c1ccc(OC(F)F)c(OCC2CC2)c1 [roflumilast]
- reduction of the numbers of neutrophils in sputum (COPD patients, oral, given over 4 weeks): 36%
- improvement of FEV 1 [1]: approximately 50 mL
- reduction of exacerbation [1]: about 15%
